Structures can show the parent of a compound that is named as a salt.
How the values were obtained:
PaAstA [1] = biological target: T1, PaAstA (Pseudomonas aeruginosa, UniProt P51691); experiment: 4-nitrophenolate release, A400; type: biochemical; settings: 1 mM substrate, pH 7.0, 5 mM CaCl2, 20-25 °C
T1 construct: gene atsA; S1_4 sulfatase

BT4322 = biological target: T2, BT4322 (Bacteroides thetaiotaomicron, UniProt Q89ZQ4); experiment: thermal shift assay (SYPRO Orange DSF); type: binding; settings: pH 7.0, 100 mM BTP, 150 mM NaCl, 5% DMSO
T2 construct: gene BT_4322; recombinant in E. coli
T2 sequence (Q89ZQ4 1-308): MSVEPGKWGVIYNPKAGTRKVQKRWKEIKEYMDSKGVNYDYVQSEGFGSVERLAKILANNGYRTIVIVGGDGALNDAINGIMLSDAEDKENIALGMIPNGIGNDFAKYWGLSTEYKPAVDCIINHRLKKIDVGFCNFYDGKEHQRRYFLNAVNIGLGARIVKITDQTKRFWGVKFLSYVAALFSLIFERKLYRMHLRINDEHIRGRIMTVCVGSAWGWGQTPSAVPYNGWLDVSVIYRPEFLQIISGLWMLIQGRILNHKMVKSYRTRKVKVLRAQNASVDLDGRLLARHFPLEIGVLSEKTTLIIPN

PaAstA [2] = biological target: T1, PaAstA; experiment: 4-nitrophenyl sulfate hydrolysis, A400; also preincubation and jump dilution; type: biochemical; settings: 1 mM compound, 1 mM 4-nitrophenyl sulfate, pH 7.0, 5 mM CaCl2, 20-25 °C; irreversible, covalent
BT1636^3S-Gal = biological target: T3, BT1636^3S-Gal (Bacteroides thetaiotaomicron, UniProt Q8A789, S77C); experiment: microfluidic mobility shift desulfation assay after overnight preincubation and dilution; type: biochemical; settings: 1 mM compound, only after preincubation; BODIPY-labelled sulfated substrate, 5 mM CaCl2, 28 °C; formylglycine form
T3 construct: gene BT_1636; recombinant in E. coli TUNER, cobalt IMAC
T3 sequence (Q8A789 23-509 S77C): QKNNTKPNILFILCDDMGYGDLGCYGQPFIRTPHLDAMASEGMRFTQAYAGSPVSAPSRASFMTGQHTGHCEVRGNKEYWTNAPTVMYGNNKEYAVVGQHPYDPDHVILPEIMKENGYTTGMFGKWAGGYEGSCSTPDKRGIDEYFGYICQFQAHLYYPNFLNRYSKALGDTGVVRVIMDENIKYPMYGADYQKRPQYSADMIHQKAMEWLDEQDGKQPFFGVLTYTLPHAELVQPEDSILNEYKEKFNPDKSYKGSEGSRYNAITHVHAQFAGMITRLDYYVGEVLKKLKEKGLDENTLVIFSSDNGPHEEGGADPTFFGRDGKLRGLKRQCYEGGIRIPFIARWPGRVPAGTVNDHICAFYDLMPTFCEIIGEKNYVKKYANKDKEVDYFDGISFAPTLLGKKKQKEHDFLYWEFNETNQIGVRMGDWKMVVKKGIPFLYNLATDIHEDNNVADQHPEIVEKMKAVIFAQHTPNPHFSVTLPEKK

T1 sequence (P51691 2-536): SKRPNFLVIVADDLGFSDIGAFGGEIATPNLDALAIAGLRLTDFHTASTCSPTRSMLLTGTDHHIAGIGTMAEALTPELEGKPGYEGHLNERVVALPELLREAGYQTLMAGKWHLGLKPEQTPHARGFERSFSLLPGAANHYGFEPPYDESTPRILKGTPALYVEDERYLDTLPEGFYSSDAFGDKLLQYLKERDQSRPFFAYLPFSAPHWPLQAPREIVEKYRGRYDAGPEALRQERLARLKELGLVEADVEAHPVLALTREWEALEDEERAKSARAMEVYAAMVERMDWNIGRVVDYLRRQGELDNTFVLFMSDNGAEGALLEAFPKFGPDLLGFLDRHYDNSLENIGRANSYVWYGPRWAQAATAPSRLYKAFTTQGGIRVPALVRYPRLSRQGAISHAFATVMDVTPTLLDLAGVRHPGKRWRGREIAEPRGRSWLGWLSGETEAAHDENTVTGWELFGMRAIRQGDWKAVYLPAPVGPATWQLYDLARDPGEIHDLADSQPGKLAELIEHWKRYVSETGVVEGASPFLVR

O=[N+]([O-])c1ccc(OS(=O)(=O)O)cc1 [4-nitrophenyl sulfate]
4-nitrophenolate release, A400 (PaAstA [1]): rapidly hydrolyzed by the family S1 steroid sulfatase PaAsta

O=c1c2ccccc2[nH]c(=S)n1CCN1CCC(=C(c2ccc(F)cc2)c2ccc(F)cc2)CC1 [diacylglycerol kinase inhibitor II]
dTm (BT4322; stabilizing): DAGK-II caused a concentration-dependent stabilization

COc1cc2ccccc2cc1OS(N)(=O)=O [compound 17, arylsulfamate 17]
% inhibition at 1 mM (PaAstA [2]): all arylsulfamates were broadly equivalent in their ability to completely inhibit both enzymes

Nc1ncnc2c1ncn2[C@@H]1O[C@H](COP(=O)(O)OP(=O)(O)OP(=O)(O)O)[C@@H](O)[C@H]1O [ATP]
dTm (BT4322; stabilizing): The substrate ATP also stabilized BT4322

Cc1nc2sccn2c(=O)c1CCN1CCC(=C(c2ccccc2)c2ccc(F)cc2)CC1 [diacylglycerol kinase inhibitor I]
dTm (BT4322; destabilizing): The DAGK-I inhibitor also caused concentration-dependent destabilization

NS(=O)(=O)Oc1ccc(-c2ccccc2)cc1 [compound 2, 4-phenylphenyl sulfamate]
% inhibition at 1 mM (PaAstA [2]): all arylsulfamates were broadly equivalent in their ability to completely inhibit both enzymes

O=S(=O)(F)c1ccccc1 [compound 23, aryl sulfonylfluoride 23]
% inhibition at 1 mM (BT1636^3S-Gal): > 50%

Source: article PMC12280919, “Arylsulfamates inhibit colonic Bacteroidota growth through a sulfatase-independent mechanism” (Proceedings of the National Academy of Sciences of the …, 2025)
